Literature values in patent US20150342920A1, “DERMATOLOGICAL COMPOSITIONS COMPRISING AT LEAST ONE RETINOID COMPOUND, AN ANTI-IRRITANT COMPOUND AND BENZOYL PEROXIDE” (GALDERMA RESEARCH & DEVELOPMENT, priority 2007, published 2015).

## O=C(OOC(=O)c1ccccc1)c1ccccc1 [benzoyl peroxide]
In solution, ethanol, propylene glycol and mixtures of PEG 400 and water, depends on type and concentration of solvent
  degradation of benzoyl peroxide in solution: degrades more or less rapidly
In suspension (disperse form) in water and in propylene glycol, after 90 days of storage
  degradation of benzoyl peroxide in suspension: not degraded
